# Data taken from patent publication US20020164346A1, “Altered peptide ligands” (priority 2001, published 2002).
# Tested on: normal donor HLA-A2+ T cells
# Experiment: In vitro T cell education with peptide-pulsed autologous dendritic cells; lysis of 51Cr-labeled peptide-pulsed T2 cells
# Format: cell-based, human
# Text: Normal donor aphoresis products were obtained from Dana-Farber Cancer Research Institute (Boston, Mass.). PBMC were isolated by centrifugation over Ficoll (Nycomed, Oslo, Norway). CD8^+ T cells were isolated using magnetic beads (Dynal, Oslo, Norway) according to the manufacturers instructions. To generate autologous dendritic cells, monocytes were isolated from the PBMC and treated with GM-CSF (Immunex, Seattle, Wash.) and IL-4 (PeproTech, London, England) for 6 days as previously described. One day prior to establishing the T cell/DC cocultures, the DCs were pulsed with peptides (10 μg/ml) overnight followed by the addition of the previously isolated CD8+ T cells at a T:DC of 10:1. Cultures were restimulated with peptide-pulsed DCs. IL-2 (50 IU/ml) was introduced on day 8 and added every 3-4 days as needed. The bulk cultures were assayed one week after the fifth restimulation. Peptide-pulsed T2 cell targets were prepared as described above and adenovirus-infected target cells were allowed to incubate with the viruses for 48 hours at the indicated MOI prior to being used in the CTL assay. […]
# Altered peptides give rise to T cells that recognize the native epitope. […] All data points represent the average of 4 replicates and background lysis, as determined using T2 cells pulsed with equivalent amounts of DMSO containing no peptide, was subtracted out.
substance,measurement,setting,value
native gp100 peptide ligand: native (wild-type) gp100209-217 peptide epitope of the human melanoma antigen gp100,ability of peptide-educated T cells to lyse targets displaying the native antigen/ligand,T cells from normal (healthy) donors educated with the peptide,generally inefficient
same,eliciting reactive T cells (lysis of T2 cells pulsed with native peptide),"after 5 weekly stimulations, bulk T cell cultures, FIG. 3",relatively poor
